Source: article PMC6469685 (Cell, 2018)

How the values were obtained:
Assay in all cases: NBD fluorescence titration
Assay type in all cases: binding
[1] = target: T1, Aster-A261–576 (ASTER domain of Aster-A) (Mus musculus, UniProt Q8VEF1)
T1 sequence (Q8VEF1 261-576): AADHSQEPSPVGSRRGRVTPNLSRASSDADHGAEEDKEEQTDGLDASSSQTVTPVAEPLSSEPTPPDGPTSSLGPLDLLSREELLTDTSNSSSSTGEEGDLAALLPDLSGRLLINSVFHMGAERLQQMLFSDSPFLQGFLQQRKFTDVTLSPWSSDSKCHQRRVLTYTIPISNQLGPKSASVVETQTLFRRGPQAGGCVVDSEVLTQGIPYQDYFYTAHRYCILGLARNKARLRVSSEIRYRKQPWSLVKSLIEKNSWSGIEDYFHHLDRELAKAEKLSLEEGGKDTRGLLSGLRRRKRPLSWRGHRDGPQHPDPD

[2] = target: Aster-C206–528 (ASTER domain of Aster-C) (Mus musculus, UniProt Q8CI52)
Aster-C206–528 (ASTER domain of Aster-C), sequence (Q8CI52 206-528): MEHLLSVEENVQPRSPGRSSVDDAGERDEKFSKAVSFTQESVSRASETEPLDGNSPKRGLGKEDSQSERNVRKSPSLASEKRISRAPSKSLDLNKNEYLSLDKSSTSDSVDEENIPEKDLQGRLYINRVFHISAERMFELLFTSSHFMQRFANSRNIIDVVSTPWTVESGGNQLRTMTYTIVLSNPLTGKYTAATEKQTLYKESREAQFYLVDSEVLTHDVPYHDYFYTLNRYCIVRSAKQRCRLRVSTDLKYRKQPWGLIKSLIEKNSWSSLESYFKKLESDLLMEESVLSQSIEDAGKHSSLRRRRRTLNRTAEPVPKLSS

[3] = target: T2, StARD1 (StAR; HMBP-3C-STAR.66–285) (Homo sapiens, UniProt P49675); conditions: labelled compound
T2 sequence (P49675 66-285): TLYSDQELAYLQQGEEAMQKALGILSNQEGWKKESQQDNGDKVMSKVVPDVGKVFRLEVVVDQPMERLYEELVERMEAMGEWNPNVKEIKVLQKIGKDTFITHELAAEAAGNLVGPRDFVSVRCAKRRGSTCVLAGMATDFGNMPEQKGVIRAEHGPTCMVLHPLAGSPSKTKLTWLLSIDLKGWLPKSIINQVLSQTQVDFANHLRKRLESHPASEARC

## C[C@H](CNc1ccc([N+](=O)[O-])c2nonc12)[C@H]1CC[C@H]2[C@@H]3CC=C4C[C@@H](O)CC[C@]4(C)[C@H]3CC[C@]12C [22-NBD-cholesterol]
[1]
  Kd: < 0.1 µM
[2]
  Kd: < 0.1 µM
[3]
  Kd: Comparison of NBD-cholesterol binding to Aster-A, Aster-B and StarD1
